Key:
[1] = molecular target: Sodium-dependent serotonin transporter (Homo sapiens, UniProt P31645); format: cell-based, JAR
Description: Inhibition of 5-HT transporter-mediated [3H]5HT uptake in human Jar cells

[2] = species: Rattus norvegicus; experiment: Displacement of [3H]prazosin from alpha1 adrenergic receptor in Sprague-Dawley rat cortical membrane at 1 uM
[3] = molecular target: Sodium-dependent serotonin transporter (Rattus norvegicus, UniProt P31652)
Description: Displacement of [3H]paroxetine from serotonin transporter in Sprague-Dawley rat frontal cortical membrane

[4] = molecular target: T1, 5-hydroxytryptamine receptor 1A (Homo sapiens, UniProt P08908)
T1 sequence (P08908 whole entry): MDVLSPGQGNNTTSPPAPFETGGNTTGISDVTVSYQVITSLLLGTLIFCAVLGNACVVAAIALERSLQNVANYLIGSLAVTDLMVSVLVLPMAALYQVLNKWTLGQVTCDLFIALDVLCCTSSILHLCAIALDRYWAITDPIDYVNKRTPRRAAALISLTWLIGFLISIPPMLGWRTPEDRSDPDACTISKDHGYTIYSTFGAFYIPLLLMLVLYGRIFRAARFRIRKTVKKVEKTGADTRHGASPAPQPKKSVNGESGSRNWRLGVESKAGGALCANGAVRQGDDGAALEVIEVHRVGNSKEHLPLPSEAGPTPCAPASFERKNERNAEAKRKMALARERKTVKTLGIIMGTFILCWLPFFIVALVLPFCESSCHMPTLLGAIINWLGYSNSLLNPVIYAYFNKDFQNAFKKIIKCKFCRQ
Description: Activity at human cloned 5HT1A receptor expressed in CHO cells assessed as blockade of 5-HT-stimulated [35S]GTPgammaS binding

[5] = molecular target: T1, 5-hydroxytryptamine receptor 1A; experiment: biochemical
[6] = molecular target: T2, 5-hydroxytryptamine receptor 1A (Homo sapiens) (UniProt P08908); experiment: Displacement of [3H]8-OH-DPAT from human recombinant 5HT1A receptor expressed in CHO cells at 1uM; format: cell-based
T2 sequence (whole entry): T1 sequence (P08908 whole entry)

Sodium-dependent serotonin transporter (Homo sapiens, UniProt P31645), sequence (P31645 whole entry): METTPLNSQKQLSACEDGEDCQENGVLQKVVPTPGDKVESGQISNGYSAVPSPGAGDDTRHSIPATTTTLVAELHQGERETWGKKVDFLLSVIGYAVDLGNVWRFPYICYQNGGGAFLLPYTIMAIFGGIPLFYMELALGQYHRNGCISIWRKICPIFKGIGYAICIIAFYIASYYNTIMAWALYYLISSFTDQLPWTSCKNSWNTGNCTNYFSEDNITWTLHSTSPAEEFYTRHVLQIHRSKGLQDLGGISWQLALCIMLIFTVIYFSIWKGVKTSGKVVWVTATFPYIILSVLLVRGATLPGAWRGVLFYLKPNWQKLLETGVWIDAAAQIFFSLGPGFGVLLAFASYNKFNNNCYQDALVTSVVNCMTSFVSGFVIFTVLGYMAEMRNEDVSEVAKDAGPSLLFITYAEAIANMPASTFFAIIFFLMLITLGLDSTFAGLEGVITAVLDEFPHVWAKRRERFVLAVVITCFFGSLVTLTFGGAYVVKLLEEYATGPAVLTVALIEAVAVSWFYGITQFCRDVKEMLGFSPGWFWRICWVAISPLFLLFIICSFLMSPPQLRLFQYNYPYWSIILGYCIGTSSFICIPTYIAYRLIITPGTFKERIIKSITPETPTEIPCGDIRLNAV
Sodium-dependent serotonin transporter (Rattus norvegicus, UniProt P31652), sequence (P31652 whole entry): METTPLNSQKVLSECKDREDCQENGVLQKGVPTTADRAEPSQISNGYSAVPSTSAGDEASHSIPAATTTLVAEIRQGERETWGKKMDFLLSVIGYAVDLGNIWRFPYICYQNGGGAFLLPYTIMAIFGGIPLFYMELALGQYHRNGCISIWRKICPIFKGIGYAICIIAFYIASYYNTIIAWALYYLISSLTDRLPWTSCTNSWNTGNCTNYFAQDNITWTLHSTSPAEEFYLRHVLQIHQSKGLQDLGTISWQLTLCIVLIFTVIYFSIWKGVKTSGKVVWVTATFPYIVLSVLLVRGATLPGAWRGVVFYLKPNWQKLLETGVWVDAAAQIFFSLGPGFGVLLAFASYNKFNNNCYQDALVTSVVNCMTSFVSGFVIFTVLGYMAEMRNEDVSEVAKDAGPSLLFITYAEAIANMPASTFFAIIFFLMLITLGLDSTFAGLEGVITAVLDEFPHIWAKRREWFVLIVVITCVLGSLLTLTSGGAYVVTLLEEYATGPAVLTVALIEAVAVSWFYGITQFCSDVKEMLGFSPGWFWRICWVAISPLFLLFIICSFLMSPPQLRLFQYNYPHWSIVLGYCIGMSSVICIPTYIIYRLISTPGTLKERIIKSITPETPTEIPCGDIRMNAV

Compound | IC50 [1] [nM] | Activity [2] [%] | Ki [3] [nM] | IC50 [4] [nM] | Ki [5] [nM] | Activity [6] [%]
CCCN(CCCc1c[nH]c2ccc(F)cc12)[C@H]1COc2c(F)ccc(C(=O)NC)c2C1 | 47 | 39 | 11.3 | 752 | 2.64 | –
NC(=O)c1ccc(Cl)c2c1CC(N(CCCc1c[nH]c3ccc(F)cc13)C1CCC1)CO2 (single isomer, unassigned; (-)) | 61.4 | – | 1.98 | 125 | 10.9 | –
N#Cc1ccc2[nH]cc(CCCN(C3CCC3)C3COc4c(F)ccc(C(N)=O)c4C3)c2c1 (single isomer, unassigned; (-)) | 24.1 | – | 2.44 | 195 | 1.98 | –
O=C(NC1CCCCC1)c1ccc(F)c2c1CC(N(CCCc1c[nH]c3ccc(F)cc13)C1CCC1)CO2 (configuration not stated) | 144 | 21 | – | > 1000 | – | 44
CCCN(CCCc1c[nH]c2ccc(F)cc12)C1COc2c(F)ccc(OC)c2C1 (configuration not stated) | 442 | – | 12.5 | – | 19.4 | –
N#Cc1ccc2[nH]cc(CCCN(C3CCC3)C3COc4c(F)ccc(C(N)=O)c4C3)c2c1 (single isomer, unassigned; (+)) | 10.1 | – | 9.05 | 1000 | 258 | –
CNC(=O)c1ccc(F)c2c1C[C@@H](N(CCCc1c[nH]c3ccc(F)cc13)C1CCC1)CO2 | 147 | 0 | 10.2 | 262 | 1.32 | –
CCCN(CCCc1c[nH]c2ccc(F)cc12)[C@H]1COc2cccc(C(N)=O)c2C1 | 146 | 31 | 23.4 | – | 0.93 | –
O=C(O)c1ccc(F)c2c1CC(N(CCCc1c[nH]c3ccc(F)cc13)C1CCC1)CO2 (configuration not stated) | 1030 | 8 | – | > 2000 | – | 4

Source: ChEMBL document CHEMBL1142498 (J Med Chem, 2008)
